The structures appear in SMILES notation.

What all share (type): in vivo
For experiment [1], the system named is larvae of the mustard beetle (Phaedon cochleariae). In words: Phaedon test (PHAECO spray treatment). To be noted: application rate of 500 g/ha; Chinese cabbage leaf discs sprayed; after 7 days. The procedure:
Phaedon Test […] Spray Treatment Solvents: 78.0 parts by weight of acetone • • 1.5 parts by weight of dimethylformamide Emulsifier: 0.5 part by weight of alkylaryl polyglycol ether To produce a suitable preparation of active compound, one part by weight of active compound is mixed with the stated amounts of solvents and emulsifier, and the concentrate is diluted with emulsifier-containing water to the desired concentration. Discs of Chinese cabbage leaves (Brassica pekinensis) are sprayed with an active compound preparation of the desired concentration and, after drying, populated with larvae of the mustard beetle (Phaedon cochleariae).

Experiment [2] deals with ALOMY. In words: Herbicidal post-emergence action. To be noted: 80 g/ha, visual assessment after about three weeks, 100% = plants have died. The procedure: (§1) 2. Herbicidal Post-Emergence Action
(§2) • Seeds of monocotylidonous and dicotylidonous weed and crop plants are placed in sandy loam in wood fibre pots, covered with soil and cultivated in a greenhouse under good growth conditions. Two to three weeks after sowing, the test plants are treated at the one-leaf stage. The test compounds, formulated as wettable powders (WP), are then with a water application rate of 600 l/ha (converted), with 0.2% of wetting agent added, sprayed onto the green parts of the plants in different amounts. After the test plants have been kept in the greenhouse under optimum growth conditions for about three weeks, the effect of the preparations is assessed visually in comparison to untreated controls (herbicidal effect in percent: 100% effect=the plants have died, 0% effect=like control plants). Post-Emergence, 80 g/ha

Experiment [3] deals with AVEFA. In words: Herbicidal post-emergence action. To be noted: 80 g/ha, visual assessment after about three weeks, 100% = plants have died. The procedure:
as §1, §2

Experiment [4] relates to ECHCG. Kind of experiment: Herbicidal post-emergence action. To be noted: 80 g/ha, visual assessment after about three weeks, 100% = plants have died. The procedure:
as §1, §2

Experiment [5] concerns LOLMU. In words: Herbicidal post-emergence action. To be noted: 80 g/ha, visual assessment after about three weeks, 100% = plants have died. The procedure:
as §1, §2

The subject of experiment [6] is SETVI. Kind of experiment: Herbicidal post-emergence action. To be noted: visual assessment after about three weeks, 100% = plants have died; for herbicidal effect in percent, SETVI: 80 g/ha; for pest or weed control at 80 g/ha: 504 h, read-out: herbicidal effect in percent, SETVI. The procedure: as §1, §2
For experiment [7], the system named is monocotylidonous and dicotylidonous weed and crop plants. In words: Herbicidal pre-emergence action. To be noted: 320 g/ha, visual assessment after three weeks, 100% = plants have died; for herbicidal effect in percent, ALOMY: ALOMY = Alopecurus myosuroides; for herbicidal effect in percent, AVEFA: AVEFA = Avena fatua; for herbicidal effect in percent, ECHCG: ECHCG = Echinochloa crus-galli; for herbicidal effect in percent, LOLMU: LOLMU = Lolium multiflorum; for herbicidal effect in percent, SETVI: SETVI = Setaria viridis; for herbicidal effect in percent, VIOTR: VIOTR = Viola tricolor. An excerpt:
1. Herbicidal Pre-Emergence Action
• Seeds of monocotylidonous and dicotylidonous weed and crop plants are placed in sandy loam in wood fibre pots and covered with soil. The test compounds, formulated in the form of wettable powders (WP), are then, as an aqueous suspension with a water application rate of 600 l/ha (converted), with 0.2% of wetting agent added, applied to the surface of the covering soil in different amounts. • After the treatment, the pots are placed in a greenhouse and kept under good growth conditions for the test plants. The visual assessment of the emergence damage on the test plants is carried out after a trial period of three weeks by comparison with the untreated controls (herbicidal effect in percent: 100% effect=the plants have died, 0% effect=like control plants).

Regarding `CCc1cc(C)cc(CC)c1C1C(=O)C2CC(COC(=O)Nc3ccccc3)CC2C1=O` (mixture of isomers) [I-a-44], the “effect in % (beetle larvae killed)” value in experiment [1] stood at 100%.
For the compound `CCc1cc(C)cc(CC)c1C1C(=O)C2CC(COC(=O)NCc3ccccc3)CC2C1=O` (mixture of isomers) [I-a-47], the “effect in % (beetle larvae killed)” value in experiment [1] amounted to 100%.
As to `CCc1cc(C)cc(CC)c1C1=C(OC(=O)C(C)(C)C)C2CC(C3OCCO3)CC2C1=O` (mixture of isomers) [I-b-4], the “herbicidal effect in percent, ALOMY” value in experiment [2] and in experiment [7] was 100% throughout. Besides, the “herbicidal effect in percent, AVEFA” value in experiment [3] and in experiment [7] was 90% in each case. Besides, the “herbicidal effect in percent, ECHCG” value in experiment [4] and in experiment [7] was 100% each time. Besides, the “herbicidal effect in percent, LOLMU” value in experiment [5] and in experiment [7] was 100% throughout. The “herbicidal effect in percent, SETVI” value in experiment [6] and in experiment [7] was 100% in each case. The “herbicidal effect in percent, VIOTR” value in experiment [7] is on record as 90%.
In the case of `CCc1cc(C)cc(CC)c1C1=C(OC(=O)C(C)(C)C)C2CC(C(OC)OC)CC2C1=O` (mixture of isomers) [I-b-5], the “herbicidal effect in percent, ALOMY” value in experiment [2] and in experiment [7] was 100% throughout. The “herbicidal effect in percent, AVEFA” value in experiment [3] and in experiment [7] was 100% each time. For the same compound, the “herbicidal effect in percent, ECHCG” value in experiment [4] and in experiment [7] was 100% each time. Further, the “herbicidal effect in percent, LOLMU” value in experiment [5] and in experiment [7] was 100% in each case. The “herbicidal effect in percent, SETVI” value is given as 100% in experiment [6] and 90% in experiment [7].
On to `CCc1cc(C)cc(CC)c1C1C(=O)C2CC(C#N)CC2C1=O` (stereo not shown) [I-a-4, 5-(2,6-Diethyl-4-methylphenyl)-4,6-dioxooctahydropentalene-2-carbonitrile], for which the “herbicidal effect in percent, ALOMY” value in experiment [2] turned out to be 50%. Also, in experiment [3], the “herbicidal effect in percent, AVEFA” value is 90%. Moreover, in experiment [4], the “herbicidal effect in percent, ECHCG” value came to 100%. In addition, the “herbicidal effect in percent, LOLMU” value in experiment [5] is on record as 60%. In experiment [6], the pest or weed control at 80 g/ha is 100%. In addition, in experiment [7], the “herbicidal effect in percent, ECHCG” value stood at 100% and the “herbicidal effect in percent, SETVI” value is recorded as 90%.
Turning to `CCc1cc(C)cc(CC)c1C1C(=O)C2CC(C3OCCCO3)CC2C1=O` (stereo not shown) [I-a-5, 2-(2,6-Diethyl-4-methylphenyl)-5-(1,3-dioxan-2-yl)tetrahydropentalene-1,3(2H,3aH)-dione], the “herbicidal effect in percent, ALOMY” value in experiment [2] and in experiment [7] was 100% throughout. Besides, the “herbicidal effect in percent, AVEFA” value stood at 100% in experiment [3] and 90% in experiment [7]. Moreover, the “herbicidal effect in percent, ECHCG” value in experiment [4] amounted to 100%. In addition, the “herbicidal effect in percent, LOLMU” value in experiment [5] and in experiment [7] was 100% throughout. The pest or weed control at 80 g/ha in experiment [6] was 100%. Moreover, the “herbicidal effect in percent, SETVI” value in experiment [7] came out at 90%.
As for `CCc1cc(C)cc(CC)c1C1C(=O)C2CC(CO)CC2C1=O` (stereo not shown) [I-a-7], in experiment [2], the “herbicidal effect in percent, ALOMY” value is given as 100%. Further, the “herbicidal effect in percent, AVEFA” value in experiment [3] is 70%; in experiment [7], 80%. The “herbicidal effect in percent, ECHCG” value in experiment [4] and in experiment [7] was 100% in each case. Moreover, the “herbicidal effect in percent, LOLMU” value in experiment [5] and in experiment [7] was 100% throughout. Also, in experiment [6], the “herbicidal effect in percent, SETVI” value is on record as 80%.
As for `CCc1cc(C)cc(CC)c1C1C(=O)C2CC(C(=O)OC)CC2C1=O` (stereo not shown) [I-a-9], the “herbicidal effect in percent, ALOMY” value in experiment [2] and in experiment [7] was 100% each time. Further, the “herbicidal effect in percent, AVEFA” value in experiment [3] stood at 90%; in experiment [7], 80%. Besides, the “herbicidal effect in percent, ECHCG” value in experiment [4] and in experiment [7] was 100% each time. In addition, the “herbicidal effect in percent, LOLMU” value in experiment [5] and in experiment [7] was 100% in each case. The “herbicidal effect in percent, SETVI” value in experiment [6] is 100%; in experiment [7], 90%.
For the compound `CCc1cc(C)cc(CC)c1C1C(=O)C2CC(C3OCCO3)CC2C1=O` (stereo not shown) [I-a-10], the “herbicidal effect in percent, ALOMY” value in experiment [2] and in experiment [7] was 100% each time. Further, the results for the “herbicidal effect in percent, AVEFA” value in experiment [3] and in experiment [7] were 100% and 90%, respectively. For the same compound, the “herbicidal effect in percent, ECHCG” value in experiment [4] and in experiment [7] was 100% throughout. Besides, the “herbicidal effect in percent, LOLMU” value in experiment [5] and in experiment [7] was 100% each time. Further, the “herbicidal effect in percent, SETVI” value in experiment [6] and in experiment [7] was 100% each time. The “herbicidal effect in percent, VIOTR” value in experiment [7] is recorded as 90%.
With `CCc1cc(C)cc(CC)c1C1=C(O)C2CC(C=NOC)CC2C1=O` (stereo not shown) [I-a-13, 5-(2,6-diethyl-4-methylphenyl)-6-hydroxy-4-oxo-1,2,3,3a,4,6a-hexahydropentalene-2-carbaldehyde O-methyloxime], in experiment [2], the “herbicidal effect in percent, ALOMY” value is reported as 100%. Besides, the “herbicidal effect in percent, AVEFA” value in experiment [3] stood at 100%. Besides, the “herbicidal effect in percent, ECHCG” value in experiment [4] worked out at 100%. In addition, the “herbicidal effect in percent, LOLMU” value in experiment [5] is listed as 100%. For the same compound, the pest or weed control at 80 g/ha in experiment [6] was found to be 100%. Moreover, in experiment [7], the “herbicidal effect in percent, AVEFA” value is 80%; the “herbicidal effect in percent, LOLMU” value came out at 100%; the “herbicidal effect in percent, VIOTR” value turned out to be 100%. In addition, the “herbicidal effect in percent, STEME” value in experiment [7] (STEME = Stellaria media) is 100%. The “herbicidal effect in percent, VERPE” value in experiment [7] (VERPE = Veronica persica) is given as 90%.
For `CCc1cc(C)cc(CC)c1C1C(=O)C2CC(OC)CC2C1=O` (stereo not shown) [I-a-22], the “herbicidal effect in percent, ALOMY” value in experiment [2] and in experiment [7] was 100% throughout. For the same compound, the “herbicidal effect in percent, AVEFA” value worked out at 100% in experiment [3] and 90% in experiment [7]. Also, the “herbicidal effect in percent, ECHCG” value in experiment [4] and in experiment [7] was 100% in each case. For the same compound, the “herbicidal effect in percent, LOLMU” value in experiment [5] and in experiment [7] was 100% in each case. The “herbicidal effect in percent, SETVI” value in experiment [6] and in experiment [7] was 100% each time.
Regarding `CCc1cc(C)cc(CC)c1C1C(=O)C2CC(O)CC2C1=O` (stereo not shown) [I-a-23], in experiment [2], the “herbicidal effect in percent, ALOMY” value was determined as 70%. In addition, the “herbicidal effect in percent, AVEFA” value in experiment [3] stood at 60%. Besides, the “herbicidal effect in percent, ECHCG” value in experiment [4] and in experiment [7] was 100% in each case. The “herbicidal effect in percent, LOLMU” value in experiment [5] stood at 90%. The “herbicidal effect in percent, SETVI” value in experiment [6] was 100%; in experiment [7], 90%.
Consider `CCc1cc(C)cc(CC)c1C1=C(OC(=O)C(C)(C)C)C2CC(/C=N/OC)CC2C1=O` (stereo not shown) [I-b-1, 2-(2,6-Diethyl-4-methylphenyl)-5-(methoxyimino)methyl-3-oxo-3,3a,4,5,6,6a-hexahydropentalen-1-yl 2,2-dimethylpropanoate], for which, in experiment [2], the “herbicidal effect in percent, ALOMY” value is reported as 100%. The “herbicidal effect in percent, AVEFA” value in experiment [3] was 100%. In experiment [4], the “herbicidal effect in percent, ECHCG” value amounted to 100%. Also, the “herbicidal effect in percent, LOLMU” value in experiment [5] came out at 100%. For the same compound, the pest or weed control at 80 g/ha in experiment [6] was determined as 100%. In experiment [7], the “herbicidal effect in percent, ALOMY” value was found to be 100%; the “herbicidal effect in percent, AVEFA” value is 90%; the “herbicidal effect in percent, ECHCG” value is 100%; the “herbicidal effect in percent, LOLMU” value is on record as 100%. In experiment [7], the “herbicidal effect in percent, SETVI” value is recorded as 100% and the “herbicidal effect in percent, VIOTR” value is listed as 90%.

(Values after patent US9101133B2, “Phenyl-substituted bicyclooctane-1,3-dione-derivatives” (BAYER INTELLECTUAL PROPERTY GMBH, priority 2010, dated 2015).)
